Patent US20190195864A1, “CELL-FREE SENSOR SYSTEMS” (priority 2016, published 2019)

Key:
tetR = target: T1, tetR (Escherichia coli, UniProt P04483); test: T7 in vitro transcription from tetR-controlled reporter plasmid, ATC titration; type: biochemical; conditions: 100 nM tetR and 100 nM reporter plasmid; ATC titrated 2 uM to 0 uM; 37° C., 4 hours; agarose gel readout
T1 construct: The tetR gene was cloned into the pET28a(+) E. coli expression plasmid; 6xHis (C); made in house; host or cells: E. coli BL21(DE3), pET28a(+)
Protocol: Using a fixed amount of tetR and plasmid, 100 nM each, T7 transcription reactions were set up as described above with the inclusion of a titrating amount of anhydrotetracycline (ATC), the native ligand for tetR. The ATC titration ranged from 2 uM to 0 uM. The IVT transcripts were analyzed by gel as described above. […] This titratable response is a requirement when working with engineered sensors cell-free to enrich a population for those members with improved ligand binding function in the pool.

cells = test: cell-based dose response of TetR sensors to nootkatone (FIG. 10); conditions: cell-based sensor assay
From the text: This is particularly useful in situations when, inter alia, a target molecule is toxic to cells in vivo and therefore a sensor to conduct cell-based detection is impractical. […] Accordingly, the detection of this target molecule would benefit from the cell-free methods described herein.

T1 sequence (P04483 whole entry): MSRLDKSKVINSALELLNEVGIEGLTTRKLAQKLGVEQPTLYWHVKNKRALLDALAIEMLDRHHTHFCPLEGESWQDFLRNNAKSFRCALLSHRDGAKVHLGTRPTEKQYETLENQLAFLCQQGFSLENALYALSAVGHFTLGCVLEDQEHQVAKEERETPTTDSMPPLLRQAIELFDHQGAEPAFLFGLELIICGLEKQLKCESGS

Compound: Cc1c2c(c(O)c3c(O)cccc13)C(=O)[C@]1(O)C(=O)C(C(N)=O)=C(O)[C@@H](N(C)C)[C@@H]1C2 [ATC, anhydrotetracycline]
- ATC concentration giving a strong RNA band similar to no tetR (full derepression of transcription) (tetR): 200 nM

Compound: C=C(C)[C@@H]1CCC2=CC(=O)C[C@@H](C)[C@]2(C)C1 [nootkatone]
- nootkatone concentration after which there is a toxic effect and the cells start to die (cells): > 0.5 mg/mL
